Data set [1] deals with NIH3T3 cells. The experiment in a line: TaCT signal by flow cytometry, NIH3T3 cells on TaCT substrates. The format is cell-based. Here is the method:
FIG. 1 provides a scheme of tension-activated cell tagging (TaCT). TaCT is based on 3′ and 5′ end mechanical pulling of a DNA duplex that leads to dehybridization. The stability of a dsDNA 24 mer was evaluated as a function of applied force generated using oxDNA simulation with a loading rate of 2.81×10^3 nm/s. The exponential moving average (EMA) indicates a 41 pN dehybridization transition. Flow cytometry histograms of NIH3T3 cells cultured on TaCT substrates as well as control surfaces with (−)cholesterol, (−)RGD, and (+)LatB were obtained.
NIH3T3 cells were seeded onto the TaCT substrates, allowed to spread, and collected by gentle scraping. The TaCT signal was then measured by flow cytometry. Probes lacking RGD, probes lacking cholesterol, as well as full TaCT probes cells treated with Lat B were used as negative controls. […] Background tagging of cells due to cell spreading and proximity to the surface leads to negligible TaCT signal.
A general note: Flow cytometry measures light scatter and fluorescence of single cells or particles in a stream.

In data set [2] the test system is mouse embryonic fibroblasts. The experiment in a line: fluorescence microscopy of force-induced DNA duplex peeling under mouse embryonic fibroblasts. It counts as cell-based. Here is the method: FIG. 4A illustrates Lat B inhibition of cells. […] RICM and Cy3B microscopy images were obtained from MEF cells incubated on peeling probe substrate after early Lat B treatment. Cells were treated with 20 μM Lat B after 15 min of plating on the substrate and imaged after 45 min of incubation.
FIG. 4B illustrates that when integrin force signals are already generated on peeling probe substrate, if the force transmission is terminated by late Lat B treatment, with additional BHQ2 peeling strand, the peeling probe can rehybridize to the duplex form. RICM and raw Cy3B microscopy images were obtained of MEF cells treated with 20 μM Lat B 50 min after seeding. The tension signal remained after 10 min of Lat B treatment and diminished after the addition of excess BHQ2 peeling strand.
The Cy3B signal was primarily localized to the cell edge, consistent with the distribution of focal adhesions (FAs) and accumulated as a function of time. The growth of Cy3B signal corresponded to the loss of Atto647N signal and confirmed the force-induced peeling mechanism. This mechanism can generate high quality maps of integrins forces independent of cholesterol conjugation to the probe. […] The observed tension signal colocalized with markers of FAs such as vinculin and phosphorylated focal adhesion kinase (FAK pY397), as well as actin stress fibers, confirming that forces were primarily transmitted by integrins within FAs. The peeling signal mirrors that of the turn-on tension gauge tether (TGT) probes but avoids termination of mechanotransduction which represents an advantage as a molecular force sensor. […] Maps accumulated mechanical events over time.

Data set [3] is described as follows: FRET efficiency of surface-immobilized TaCT probes. The format is physicochemical. From the text: In one example, TaCT probe is comprised of a load-bearing strand and a 24mer peeling strand. […] The loading-bearing strand also incorporated an internal Cy3B dye. The complementary peeling strand was designed to release once force (F) is greater than F peel. The peeling strand termini were labeled with Atto647N and cholesterol. The TaCT probes were annealed and immobilized on streptavidin-coated glass slides. At rest, the probe is in the dsDNA form where Cy3B and Atto647N form a FRET pair. When F is greater than F peel, the Atto647N strand peels and dissociates, while the Cy3B dye on the load bearing strand is de-quenched. […] The probe density was measured at 5200 molecules/μm^2 using a quantitative fluorescence calibration, which allows one to convert the Cy3B fluorescence signal to a % peel.

Data set [4] relates to mouse platelets. The experiment in a line: TaCT signal by flow cytometry, mouse platelets on TaCT surface. The note with it: mouse platelets seeded 30 min. It counts as cell-based. Here is the method: Experiments were performed to determine whether this strategy works in primary cells. […] When mouse platelets were seeded onto the TaCT surface for 30 min, a loss of Atto647N signal was noted that was coupled with an increase in Cy3B. This confirmed that platelet integrin force transmission was sufficient to mediate DNA peeling with F greater than 41 pN.

A further data set deals with MEF cells (WT and vin−). The data set can be described thus: TaCT on co-cultured WT and vinculin null MEF cells, flow cytometry. It counts as cell-based, mouse. Here is the method: Vinculin is an adaptor protein that localizes to FAs linking the cytoskeleton to adhesion receptors and aids in FA maturation. TaCT was performed on these two cell types separately. The vin− cells were stained with cell tracker dye, CMFDA, before plating onto TaCT substrates. To ensure that the TaCT signal is not due to differential uptake, cholesterol uptake of WT and vin− cells was measured by flow cytometry in parallel with each TaCT assay. WT cells had larger spreading area and produced more tension signal compared to vin− cells in the Cy3B channel. […] Experiments were performed to determine whether this differential tension signal could be detected when the WT and vin− were co-cultured.

Data set [5] relates to MEF cells. The experiment in a line: concentration dependent incorporation of cholesterol peeling strand. It counts as cell-based, mouse. As to conditions: 0, 1, 10, 100 nM, 1 h. Here is the method: FIG. 5C provides a scheme showing flow cytometry measurements of the concentration dependent incorporation of cholesterol peeling strand. MEF cells were incubated with 0, 1, 10, and 100 nM of cholesterol peeling strand for 1 h. The excess cholesterol peeling strand was washed away by spinning down in PBS three times, and the fluorescence intensity of cells was measured by a flow cytometer.
Linear relationship between cholesterol strand concentration and cell association was found, R2=0.977.
(§1) After confirming that DNA peeling consistently maps molecular traction forces, cholesterol-DNA cell tagging for TaCT was investigated. Cholesterol-DNA is contemplated to partition into the plasma membrane of cells. […] The stability of TaCT tags was examined by incubating cholesterol-single stranded DNA with cells, washing, and measuring the loss of DNA as a function of time. Approximately 20-30% of the cholesterol-tethered DNA dissociated at 90 min. Accordingly, the cells were incubated on the surface for 1 h, which allowed for focal adhesion formation and TaCT method to proceed while limiting cholesterol dissociation.

Data set [6] has as its system mouse platelets. The experiment in a line: flow cytometry of DNA strand uptake in solution (cholesterol-DNA cell tagging). The format is cell-based. As to conditions: 50 nM, 30 min. As to the method: FIG. 5A illustrates a scheme for making flow cytometry measurements of the DNA strands uptake in solution. Mouse platelets were incubated with 50 nM of cholesterol peeling strand, TaCT duplex, load-bearing strand, TaCT duplex lacking RGD, and load-bearing strand lacking RGD in Tyrode's buffer for 30 min and spun down three times to wash away the excess oligos. The association was measured in both Atto647N and Cy3B channels by a flow cytometer.
as §1

In data set [7] the test system is NIH3T3 cells. The experiment in a line: cholesterol peeling strand dissociation from the cell. The note with it: at 90 min after washing. The format is cell-based. Here is the method: FIG. 5E provides a scheme showing the measurement of cholesterol peeling strand dissociation from the cell. NIH3T3 cells were incubated with 100 nM cholesterol peeling strand for 30 min and rinsed with PBS 3 times. Cells were divided into 6 aliquots and the remaining cholesterol strand in cells was measured every 30 min for 150 min by flow cytometry.
The normalized MFI from 2 replicates was plotted to show the dissociation of cholesterol strand over time in NIH3T3 cells.
as §1

For data set [8], the target named is Rho-associated protein kinase (ROCK). As to conditions: cited from earlier work.
The subject of data set [9] is MEF cells. The data set can be described thus: Y27632 dose-dependent response of TaCT / tension signal in MEF cells. It counts as cell-based, mouse. The note with it: Y27632 pre-treatment. The text has this:
To showcase that TaCT is an effective method to report cell receptor forces, a Rho-associated protein kinase (ROCK) inhibitor, Y27632, was used to disrupt the force transmission through cytoskeleton and measure the dose-dependent response in MEF cells. Y27632 inhibits ROCK kinases by competing with ATP binding, and further result in decreased myosin activity, destabilization of actin filament and abolished stress formation.

As to `C/C1=C/C(=O)O[C@@H]2C[C@@H](CC[C@H](C)/C=C\CC1)O[C@@](O)([C@@H]1CSC(=O)N1)C2` [Lat B, Latrunculin B, reference compound], the force positive population in the data set with NIH3T3 cells [1] (NIH3T3 cells on full TaCT probes, cells treated with Lat B) came to 3.5%. For the same molecule, in [2] (Lat B 50 min after seeding (20 μM)), the tension signal changes result was “did not show tension signal changes”. In addition, the peeling signal result in [2] (cells treated with Lat B (early, 20 μM)) was “significantly reduced peeling signal”.
Regarding “TaCT probe: DNA duplex: RGD/Cy3B/biotin load-bearing strand (SEQ ID NO: 1) and 24mer Atto647N, cholesterol peeling strand (SEQ ID NO: 2) (DNA 1 TTTTTTTTTTAGTGAGCTCTGAAGTCTTAGAACT; DNA 2 AGTTCTAAGACTTCAGAGCTCACT; DNA, backbone and methylation of C not given here; RGD and biotin at the two termini, internal Cy3B, peeling strand Atto647N and cholesterol)”, in data set [3], the “Cy3B signal enhancement upon peeling” value is given as “greater than 10 fold”. In addition, the FRET efficiency in [3] (Cy3B / Atto647N pair in dsDNA form) turned out to be 93.8%. The “Atto647N geometric mean fluorescence intensity (gMFI) increase compared to controls” value with NIH3T3 cells [1] (NIH3T3 cells incubated on TaCT) is on record as “greater than 2 fold”. Also, the “Cy3B gMFI” value in the data set with NIH3T3 cells [1] (NIH3T3 cells incubated on TaCT compared to controls) is recorded as “did not change”. For the same molecule, the force positive population amounted to 27.6% in the data set with NIH3T3 cells [1] (NIH3T3 cells on substrate, 1 h, flow cytometry); 13.3% with mouse platelets [4]; 24.4% in the data set on MEF cells (WT and vin−) (WT MEF cells in mixed population (co-culture)); 5.2% in the data set on MEF cells (WT and vin−) (vin− MEF cells in mixed population (co-culture)). The “mechanical events with F greater than 41 pN” value in data set [2] (equivalent of % peel and probe density) was “approximately 47 mechanical events/μm^2”. Besides, the “probes peeled under each cell” value in data set [2] (quantitative microscopy analysis) amounted to 0.9%.
For “Cholesterol-single stranded DNA conjugates: 24 mer peeling strand (SEQ ID NO: 2) labeled with Atto647N and cholesterol (DNA AGTTCTAAGACTTCAGAGCTCACT; DNA, backbone and methylation of C not given here; Atto647N and cholesterol on the termini)”, in the data set on MEF cells [5], the “membrane-association versus soluble conjugate concentration” value is on record as “linearly proportional”. In the data set with mouse platelets [6], the “effectiveness at tagging cells compared to cholesterol-double stranded DNA conjugates” value is on record as “approximately 50 fold”. In the data set on NIH3T3 cells [7], the “cholesterol-tethered DNA dissociated” value is reported as 20-30%.
For orientation: IC50 means the concentration needed to halve the response being measured. For `C[C@@H](N)[C@H]1CC[C@H](C(=O)Nc2ccncc2)CC1` [Y27632], the “literature reported IC50 values” in data set [8] is on record as “hundreds of nM to low μM”. In addition, in the data set on MEF cells [9] (Mus musculus, flow cytometry, ROCK inhibitor), the half-inhibitory concentration (IC50) amounted to 773 nM. The Cy3B tension signal entry in the data set with MEF cells [9] (microscopy) was “decreased Cy3B tension signal”.

These data come from patent US20260098863A1, “Tension-Activated Cell Tagging (TaCT)” (Emory University, priority 2022, published 2026).
